Laboratory results as given in ChEMBL document CHEMBL5316326, “Discovery of a Novel Covalent EZH2 Inhibitor Based on Tazemetostat Scaffold for the Treatment of Ovarian Cancer” (J Med Chem, 2023).
Activity calls are given as the source filed them. The calls are words filed in the database; no cut-off is given here.

Experiments:
PA-1 [1] = test: Inhibition of colony formation in human PA-1 cells assessed as reduction in number of colonies at 0.25 to 10 uM incubated for 14 days with medium change every 3 days by crystal violet staining method; type: functional, cell-based; conditions: dose 0.25-10 µM, time 14.0 day
[2] = target: Protein arginine N-methyltransferase 1 (Homo sapiens) (UniProt Q99873); test: Inhibition of PRMT1 (unknown origin) at 1 to 10 uM by AlphaLlSA assay; conditions: dose 1-10 µM
PA-1 [3] = test: Induction of apoptosis in human PA-1 cells assessed as early apoptotic cells at 20 uM incubated for 48 hrs by AnnexinV-FITC/PI staining based flow cytometry analysis (Rvb= 6.89%); type: functional
[4] = Oral bioavailability in Sprague-Dawley rat at 100 mg/kg and measured upto 24 hrs by LC-MS/MS analysis; type: ADME, organism-based; conditions: in vivo
PA-1 [5] = test: Induction of apoptosis in human PA-1 cells assessed as necrotic cells at 5 uM incubated for 48 hrs by AnnexinV-FITC/PI staining based flow cytometry analysis (Rvb= 1.48%); type: functional
[6] = Toxicity in BALB/C nude mouse xenografted with human PA-1 cells assessed as body weight change at 75 to 150 mg/kg,po BID for 21 days; type: organism-based; conditions: in vivo, 504 h, dose 75-150 mg/kg, time 21 day
[7] = Toxicity in BALB/C nude mouse xenografted with human PA-1 cells assessed as pathological changes in serum biochemical values at 75 to 150 mg/kg,po BID for 21 days; type: organism-based; conditions: in vivo, 504 h, dose 75-150 mg/kg, time 21 day
[8] = system: Histone-lysine N-methyltransferase EZH2 (Homo sapiens), Q15910 [Y641F]; conditions: dose 10.0 nM
Description: Inhibition of EZH2 Y614F mutant (unknown origin) at 10 nM by AlphaLlSA assay

PA-1 [9] = test: Inhibition of colony formation in human PA-1 cells assessed as reduction in size of colonies at 0.25 to 10 uM incubated for 14 days with medium change every 3 days by crystal violet staining method; type: functional, cell-based; conditions: dose 0.25-10 µM, time 14.0 day
ES-2 = test: Antiproliferative activity against human ES2 cells assessed as inhibition of cell proliferation incubated for 72 hrs by MTT assay; type: functional, cell-based; conditions: ES-2, 72 h
[10] = target: Histone-lysine N-methyltransferase EZH1 (Homo sapiens) (UniProt Q92800); test: Inhibition of EZH1 (unknown origin) by AlphaLlSA assay
[11] = target: T1, Histone-lysine N-methyltransferase EZH2 (Homo sapiens, UniProt Q15910); test: Inhibition of EZH2 methyltransferase activity in human PA-1 cells assessed as reduction in H3K27me3 level at 0.3 to 5 uM incubated for 3 days by Western blot analysis; type: cell-based; conditions: dose 0.3-5 µM, time 3.0 day
Target sequence in this assay (Q15910 whole entry, looked up): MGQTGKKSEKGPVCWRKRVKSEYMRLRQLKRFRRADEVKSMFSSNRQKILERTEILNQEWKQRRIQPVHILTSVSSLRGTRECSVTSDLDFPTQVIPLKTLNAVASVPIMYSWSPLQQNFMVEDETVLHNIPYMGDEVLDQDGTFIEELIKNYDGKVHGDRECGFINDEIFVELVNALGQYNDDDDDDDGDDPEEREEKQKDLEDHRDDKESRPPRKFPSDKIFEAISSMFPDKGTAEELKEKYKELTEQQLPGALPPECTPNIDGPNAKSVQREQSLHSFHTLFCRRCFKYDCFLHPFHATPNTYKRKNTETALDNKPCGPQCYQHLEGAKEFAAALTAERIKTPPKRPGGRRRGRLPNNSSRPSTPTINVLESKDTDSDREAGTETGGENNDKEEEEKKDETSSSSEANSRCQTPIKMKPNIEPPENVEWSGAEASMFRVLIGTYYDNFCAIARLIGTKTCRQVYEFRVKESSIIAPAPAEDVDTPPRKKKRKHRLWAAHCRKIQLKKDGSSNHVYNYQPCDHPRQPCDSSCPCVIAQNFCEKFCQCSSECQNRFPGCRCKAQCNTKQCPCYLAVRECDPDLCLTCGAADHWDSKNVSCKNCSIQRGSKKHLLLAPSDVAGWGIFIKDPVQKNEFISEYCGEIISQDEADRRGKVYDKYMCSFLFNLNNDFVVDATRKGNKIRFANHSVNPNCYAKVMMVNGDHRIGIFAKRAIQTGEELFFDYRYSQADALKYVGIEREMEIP

[12] = target: Protein arginine N-methyltransferase 5 (Homo sapiens) (UniProt O14744); test: Inhibition of PRMT5 (unknown origin) at 1 to 10 uM by AlphaLlSA assay; conditions: dose 1-10 µM
[13] = target: T1, Histone-lysine N-methyltransferase EZH2; test: Inhibition of EZH2 methyltransferase activity in human PA-1 cells assessed as reduction in H3K27me3 level at 10 uM incubated for 3 days followed by compound washout and measured after 4 days by Western blot analysis; type: cell-based; conditions: time 3.0 day
Target sequence in this assay (Q15910 whole entry, looked up): as above

[14] = target: N-lysine methyltransferase SMYD2 (Homo sapiens) (UniProt Q9NRG4); test: Inhibition of SMYD2 (unknown origin) at 1 to 10 uM by AlphaLlSA assay; conditions: dose 1-10 µM
[15] = target: T1, Histone-lysine N-methyltransferase EZH2; test: Inhibition of EZH2 methyltransferase activity in human A2780 cells assessed as reduction in H3K27me3 level incubated for 3 days by Western blot analysis; type: cell-based
Target sequence in this assay (Q15910 whole entry): as the sequence (Q15910 whole entry, looked up) above

[16] = target: T1, Histone-lysine N-methyltransferase EZH2; test: Inhibition of wild type EZH2 (unknown origin) by AlphaLlSA assay
Target sequence in this assay (Q15910 whole entry): as the sequence (Q15910 whole entry, looked up) above

PA-1 [17] = test: Induction of apoptosis in human PA-1 cells assessed as early apoptotic cells at 5 uM incubated for 48 hrs by AnnexinV-FITC/PI staining based flow cytometry analysis (Rvb= 6.89%); type: functional
PA-1 [18] = test: Induction of apoptosis in human PA-1 cells assessed as late apoptotic cells at 20 uM incubated for 48 hrs by AnnexinV-FITC/PI staining based flow cytometry analysis (Rvb= 3.09%); type: functional
[19] = Cmax in Sprague-Dawley rat at 5 mg/kg, iv and measured upto 24 hrs by LC-MS/MS analysis; type: ADME, organism-based; parameters: dose 5 mg/kg, time < 24 hrs, route iv; conditions: in vivo
PA-1 [20] = test: Induction of apoptosis in human PA-1 cells assessed as viable cells at 20 uM incubated for 48 hrs by AnnexinV-FITC/PI staining based flow cytometry analysis (Rvb= 88.53%); type: functional; conditions: read-out: Activity
PA-1 [21] = test: Antitumor activity against human PA-1 cells xenografted in BALB/C nude mouse assessed as tumor growth inhibition at 150 mg/kg,po BID for 21 days; type: functional; conditions: PA-1, 504 h, time 21 day, read-out: TGI
PA-1 [22] = test: Antiproliferative activity against human PA-1 cells assessed as reduction in cell viability at 10 uM incubated for 3 days followed by compound washout and measured after 4 days by microscopy analysis; type: functional, cell-based; conditions: time 3.0 day
PA-1 [23] = test: Induction of apoptosis in human PA-1 cells assessed as viable cells at 10 uM incubated for 48 hrs by AnnexinV-FITC/PI staining based flow cytometry analysis (Rvb= 88.53%); type: functional; conditions: read-out: Activity
OVCAR-3 = test: Antiproliferative activity against human OVCAR-3 cells assessed as inhibition of cell proliferation incubated for 72 hrs by MTT assay; type: functional, cell-based; conditions: OVCAR-3, 72 h
[24] = Half life in Sprague-Dawley rat at 100 mg/kg, po and measured upto 24 hrs by LC-MS/MS analysis; type: ADME, organism-based; conditions: in vivo
PA-1 [25] = test: Induction of apoptosis in human PA-1 cells assessed as early apoptotic cells at 10 uM incubated for 48 hrs by AnnexinV-FITC/PI staining based flow cytometry analysis (Rvb= 6.89%); type: functional
PA-1 [26] = test: Induction of apoptosis in human PA-1 cells assessed as early apoptotic cells at 40 uM incubated for 48 hrs by AnnexinV-FITC/PI staining based flow cytometry analysis (Rvb= 6.89%); type: functional
[27] = Volume of distribution at steady state in Sprague-Dawley rat at 5 mg/kg, iv and measured upto 24 hrs by LC-MS/MS analysis; type: ADME, organism-based; conditions: in vivo
Mus musculus = test: In vivo inhibition of EZH2 in human PA-1 cells xenografted in BALB/C nude mouse assessed as reduction in H3K27me3 expression level at 75 to 150 mg/kg,po BID for 21 days by immunohistochemical analysis; type: functional, organism-based; conditions: dose 75-150 mg/kg, time 21.0 day
PA-1 [28] = test: Induction of apoptosis in human PA-1 cells assessed as late apoptotic cells at 5 uM incubated for 48 hrs by AnnexinV-FITC/PI staining based flow cytometry analysis (Rvb= 3.09%); type: functional
A2780 = test: Inhibition of colony formation in human A2780 cells assessed as reduction in number of colonies at 0.25 to 10 uM incubated for 14 days with medium change every 3 days by crystal violet staining method; type: functional, cell-based; conditions: dose 0.25-10 µM, time 14.0 day
PA-1 [29] = test: Antitumor activity against human PA-1 cells xenografted in BALB/C nude mouse assessed as reduction tumor cell proliferation at 75 to 150 mg/kg,po BID for 21 days by Ki67 staining based immunohistochemical analysis; type: functional, organism-based; conditions: dose 75-150 mg/kg, time 21.0 day
PA-1 [30] = test: Induction of apoptosis in human PA-1 cells assessed as late apoptotic cells at 40 uM incubated for 48 hrs by AnnexinV-FITC/PI staining based flow cytometry analysis (Rvb= 3.09%); type: functional

Histone-lysine N-methyltransferase EZH2 (Homo sapiens), Q15910 [Y641F], sequence (Q15910 whole entry Y641F, looked up): as the sequence (Q15910 whole entry, looked up) above, with Y641F counted along it
Protein arginine N-methyltransferase 1 (Homo sapiens), sequence (Q99873 whole entry, looked up): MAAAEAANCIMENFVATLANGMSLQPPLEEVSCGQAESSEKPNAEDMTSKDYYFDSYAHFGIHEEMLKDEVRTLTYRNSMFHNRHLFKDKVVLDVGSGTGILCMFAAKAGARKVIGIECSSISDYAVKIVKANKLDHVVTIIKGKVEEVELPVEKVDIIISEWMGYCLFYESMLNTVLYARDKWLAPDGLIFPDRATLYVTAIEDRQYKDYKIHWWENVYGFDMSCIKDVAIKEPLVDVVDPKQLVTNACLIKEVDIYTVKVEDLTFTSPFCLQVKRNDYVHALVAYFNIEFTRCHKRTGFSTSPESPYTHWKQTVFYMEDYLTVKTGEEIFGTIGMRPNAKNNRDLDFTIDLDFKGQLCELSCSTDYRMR
Protein arginine N-methyltransferase 5 (Homo sapiens), sequence (O14744 whole entry): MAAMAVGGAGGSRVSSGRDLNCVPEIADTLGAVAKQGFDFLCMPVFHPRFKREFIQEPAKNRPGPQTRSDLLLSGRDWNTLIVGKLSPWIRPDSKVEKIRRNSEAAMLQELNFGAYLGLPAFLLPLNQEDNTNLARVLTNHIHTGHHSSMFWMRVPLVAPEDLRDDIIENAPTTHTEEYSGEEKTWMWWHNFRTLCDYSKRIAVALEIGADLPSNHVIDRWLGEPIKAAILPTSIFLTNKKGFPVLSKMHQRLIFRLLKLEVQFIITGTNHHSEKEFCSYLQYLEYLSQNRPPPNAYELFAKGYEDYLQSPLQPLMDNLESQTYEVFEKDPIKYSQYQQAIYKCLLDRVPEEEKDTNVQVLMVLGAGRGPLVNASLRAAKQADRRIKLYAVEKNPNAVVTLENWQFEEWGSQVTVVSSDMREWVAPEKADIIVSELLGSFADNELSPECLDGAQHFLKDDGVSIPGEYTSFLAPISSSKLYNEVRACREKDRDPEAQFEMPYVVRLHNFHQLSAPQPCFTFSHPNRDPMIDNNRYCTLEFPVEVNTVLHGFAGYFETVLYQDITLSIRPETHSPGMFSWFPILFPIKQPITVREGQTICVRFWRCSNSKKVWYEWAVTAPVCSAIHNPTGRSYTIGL
Histone-lysine N-methyltransferase EZH1 (Homo sapiens), sequence (Q92800 whole entry): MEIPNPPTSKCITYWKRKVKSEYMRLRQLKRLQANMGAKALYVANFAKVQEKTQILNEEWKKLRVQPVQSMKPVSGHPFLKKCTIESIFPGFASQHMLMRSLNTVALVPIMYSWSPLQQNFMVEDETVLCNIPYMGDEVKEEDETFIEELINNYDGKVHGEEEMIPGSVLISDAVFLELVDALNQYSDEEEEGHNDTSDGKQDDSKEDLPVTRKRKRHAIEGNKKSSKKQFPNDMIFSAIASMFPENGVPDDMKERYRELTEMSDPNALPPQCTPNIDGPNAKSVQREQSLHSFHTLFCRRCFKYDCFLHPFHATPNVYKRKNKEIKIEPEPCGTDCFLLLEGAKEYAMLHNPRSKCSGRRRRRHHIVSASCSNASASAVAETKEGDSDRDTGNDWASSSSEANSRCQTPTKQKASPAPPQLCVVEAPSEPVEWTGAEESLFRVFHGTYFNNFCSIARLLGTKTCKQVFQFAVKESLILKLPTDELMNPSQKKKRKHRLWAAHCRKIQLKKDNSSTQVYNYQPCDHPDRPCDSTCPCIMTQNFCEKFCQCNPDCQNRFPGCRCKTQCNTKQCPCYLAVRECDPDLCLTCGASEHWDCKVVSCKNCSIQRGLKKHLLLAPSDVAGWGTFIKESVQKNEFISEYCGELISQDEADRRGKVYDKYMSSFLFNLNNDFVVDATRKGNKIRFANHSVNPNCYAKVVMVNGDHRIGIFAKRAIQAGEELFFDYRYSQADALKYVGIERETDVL
N-lysine methyltransferase SMYD2 (Homo sapiens), sequence (Q9NRG4 whole entry): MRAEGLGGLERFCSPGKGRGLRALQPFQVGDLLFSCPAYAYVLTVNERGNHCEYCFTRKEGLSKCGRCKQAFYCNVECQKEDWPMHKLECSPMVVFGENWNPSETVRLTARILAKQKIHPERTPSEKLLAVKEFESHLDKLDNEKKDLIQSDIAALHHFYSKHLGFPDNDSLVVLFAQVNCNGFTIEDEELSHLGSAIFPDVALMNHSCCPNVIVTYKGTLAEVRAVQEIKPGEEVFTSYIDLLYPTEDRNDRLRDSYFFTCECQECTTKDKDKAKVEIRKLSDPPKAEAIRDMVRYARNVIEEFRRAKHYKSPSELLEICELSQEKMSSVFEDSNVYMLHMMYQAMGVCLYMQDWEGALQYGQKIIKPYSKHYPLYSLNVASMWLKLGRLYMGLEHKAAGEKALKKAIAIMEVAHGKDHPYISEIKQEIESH

inhibition [2]: inactive | bioavailability [4]: 8.73% | inhibition [8]: Active | inhibition [10]: Active | inhibition [11]: Dose-Dependent Effect | inhibition [12]: inactive | inhibition [13]: Active | inhibition [14]: inactive | IC50 [15]: 1.27 µM | IC50 [16]: 0.00172 µM | Cmax [19]: 22800 ng/mL | IC50 (OVCAR-3): 35.6 µM | half-life [24]: 46.2 min | Vdss [27]: 0.20228 L/kg
Compound: C=CC(=O)Nc1ccc(C)c(-c2cc(C(=O)NCc3c(C)cc(C)[nH]c3=O)c(C)c(N(CC)C3CCOCC3)c2)c1
inhibition (PA-1 [1]): Dose-Dependent Effect | Activity (PA-1 [3]): 31.78% | Activity (PA-1 [5]): 1.22% | Activity [6]: Non-Toxic | Activity [7]: Non-Toxic | inhibition (PA-1 [9]): Dose-Dependent Effect | IC50 (ES-2): 36.4 µM | Activity (PA-1 [17]): 10.39% | Activity (PA-1 [18]): 14.41% | viability at 20 µM (PA-1 [20]): 50.5% | inhibition in vivo at 150 mg/kg (PA-1 [21]): 78.2% | Activity (PA-1 [22]): Active | viability at 10 µM (PA-1 [23]): 70.5% | Activity (PA-1 [25]): 22.39% | Activity (PA-1 [26]): 87.19% | inhibition (Mus musculus): Active | Activity (PA-1 [28]): 5.21% | inhibition (A2780): Dose-Dependent Effect | Activity (PA-1 [29]): Active | Activity (PA-1 [30]): 2.21%
